Laboratory results from US9139575B2, “Broad spectrum antiviral and antiparasitic agents” (priority 2010, dated 2015).
Like-named read-outs stand apart in the source and are kept apart here.

Legend:
NDV = assay: microbe, parasite or virus in culture; type: cell-based, Newcastle disease virus; details: for IC50: read-out: IC50 ± STD (nM) (N = x) NDV
HSV = assay: Inhibition of HSV infection (Table 1); type: cell-based, herpes simplex virus; details: for IC50: read-out: IC50 ± STD (nM) (N = x) HSV
HIV = assay: Inhibition of HIV infection (Table 1); type: cell-based, human immunodeficiency virus
[1] = Absorption spectra of compounds in DMSO; type: physicochemical; details: for Abs Max: 100 μM in DMSO; for Relative integrated area from 400 to 700 nm: area under absorption curve, JL001 = 100
HIV (IIIB) = assay: HIV inactivation in packed red blood cells, TZM-BL luciferase readout; type: cell-based, human immunodeficiency virus; details: 100 μM, 1 h white light, hematocrit 80%
Toxoplasma gondii = Toxoplasma gondii attachment and invasion of HFFs; type: cell-based; details: 10 μM, normalized to DMSO control, preliminary
[2] = Pharmacokinetic profile after single po, ip or iv administration; details: for bioavailability: female, Balb/c, mouse, plasma
[3] = KT rate constant (Table 1); type: physicochemical; details: values are KT × 10^−7
[4] = Clinical observations after single dose in PK study; details: for toxicity in vivo compared to the rhodanine derivatives: gavage, intravenous or intraperitoneal administration in mice
lipid-enveloped viruses [5] = details: reference [1], cited from earlier work
[6] = test system: cytomegalovirus (CMV, herpesvirus); type: cell-based
[7] = test system: Semliki forest virus (SFV, alphavirus); type: cell-based
lipid-enveloped viruses [8] = assay: organism not typed; type: cell-based; details: read-out: IC50 inhibition of infection of lipid-enveloped viruses
Hela cells = assay: Cytotoxicity by MTT assay in dark or under light; type: cell-based; details: Homo sapiens, exposed for 1 hour to light, MTT 24 hours later, read-out: concentration triggering death of 50% of treated cells
[9] = number of experiments in parentheses
[10] = Human immunodeficiency virus 1, number of experiments in parentheses, read-out: IC50 ± STD (nM) (N = x) HIV

SMILES: Cc1c(C)c2c(c(C)c1O)CC[C@@](C)(CCC[C@H](C)CCC[C@H](C)CCCC(C)C)O2 [alpha-tocopherol, reference compound]
- effect of antioxidant on antiviral activity of JL103 (NDV): blocks the antiviral activity

SMILES: CCN1C(=O)S/C(=C\c2ccc(-c3ccccc3)o2)C1=O [JL025, reference compound]
- IC50 ± STD (nM) (N = x) HSV (HSV; [9]): Not active (1)
- IC50 ± STD (nM) (N = x) HIV (HIV; [9]): Not active (4)
- IC50 ± STD (nM) (N = x) NDV (NDV): Not active (2)
- Abs Max [1]: 405 nm

SMILES: CCN1C(=S)O/C(=C\c2ccc(-c3c(OC)cc(OC)cc3OC)o2)C1=S [JL122, (Z)-3-Ethyl-5-(5-(2,4,6-tiimethoxyphenyl)-furan-2-ylmethylene)oxazolidine-2,4-dithione]
- IC50 (HSV; [9]): 3 ± 1 nM
- HIV inactivation in packed RBC (luciferase activity, RLU) (HIV (IIIB)): dramatically decrease the luciferase activity to near-background levels
- IC50 (NDV; avian paramyxovirus 1, Vero): 1 nM
- Abs Max [1]: 547 nm

SMILES: CCN1C(=S)OC(Cc2ccc(-c3ccccc3)o2)C1=S (stereo not shown) [JL107]
- IC50 (NDV; avian paramyxovirus 1, Vero): 928 nM
- inhibition of parasite attachment and invasion (Toxoplasma gondii): most potent inhibition
- inhibition of parasite attachment and invasion (Toxoplasma gondii; listed as 107): inhibited parasite attachment and invasion

SMILES: CCN1C(=O)/C(=C/c2ccc(-c3ccccc3)o2)OC1=S [JL101, (Z)-3-ethyl-5-((5-phenylfuran-2-yl)methylene)-2-thioxooxazolidine-4-one]
- IC50 (HIV; [10]): > 1000 nM
- IC50 (NDV; avian paramyxovirus 1, Vero): > 1000 nM

SMILES: C=CCN1C(=O)/C(=C/c2ccc(-c3ccccc3)o2)SC1=S [LJ001, reference compound]
- exposure ([2]; 10 mg/kg iv, 5 mg/kg ip, 10 and 100 mg/kg po): minimal exposure
- elimination ([2]; mice, single dose): ~700 mL/min/kg
- half-life ([2]; mice, single dose): 12 min
- IC50 (HSV): 35 ± 48 nM
- HIV inactivation in packed RBC (luciferase activity, RLU) (HIV (IIIB)): unable to inactivate HIV
- KT × 10^−7 [3]: 1.0 ± 0.1 M^−1s^−1
- IC50 (HIV; Human immunodeficiency virus 1, read-out: IC50 ± STD (nM) (N = x) HIV): 183 ± 272 nM
- IC50 (NDV; avian paramyxovirus 1, Vero): 207 nM
- absorption peak [1]: about 440 nm
- Abs Max [1]: 457 nm
- Relative integrated area from 400 to 700 nm [1]: 100
- inhibition of parasite attachment and invasion (Toxoplasma gondii): highly effective
- clinical observations ([4]; 5 mg/kg ip single dose): appeared normal
- clinical observations ([4]; 10 mg/kg ip single dose): 2 were sacrificed in moribund condition and 1 was found dead
- IC95 viral infection common for all viruses tested (lipid-enveloped viruses [5]): ~10000 nM
- IC50 (lipid-enveloped viruses [5]; read-out: IC50 viral infection common for all viruses tested): ~1000 nM

SMILES: CCN1C(=S)N/C(=C\c2ccc(-c3ccccc3)o2)C1=S [JL105, (Z)-3-ethyl-5-((5-phenylfuran-2-yl)methylene)imidazolidine-2,4-dithione]
- IC50 (NDV; avian paramyxovirus 1, Vero): > 100000 nM
- Abs Max [1]: 521 nm

SMILES: CCN1C(=S)O/C(=C\c2ccc(-c3ccc(OC)cc3)n2C)C1=S [JL119, (Z)-3-Ethyl-5-((5-(4-methoxyphenyl)-1-methyl-1H-pyrrole-2-yl)methylene)oxazolidine-2,4-dithione]
- IC50 (NDV; avian paramyxovirus 1, Vero): 6 nM
- Abs Max [1]: 551 nm

SMILES: CCN1C(=S)O/C(=C\c2ccc(-c3ccc(N(C)C)cc3)n2C)C1=S [JL123]
- IC50 (HSV; [9]): 75 ± 45 nM
- IC50 (NDV; avian paramyxovirus 1, Vero): 49 nM
- Abs Max [1]: 593 nm

SMILES: CCN1C(=O)O/C(=C\c2ccc(-c3ccccc3)o2)C1=O [JL121, (Z)-3-ethyl-5-((5-phenylfuran-2-yl)methylene)oxazolidine-2,4-dione]
- IC50 ± STD (nM) (N = x) HSV (HSV; [9]): Not active (1)
- KT × 10^−7 [3]: 2.5 ± 0.2 M^−1s^−1
- IC50 (NDV; avian paramyxovirus 1, Vero): > 500000 nM

SMILES: CCN1C(=S)O/C(=C\c2ccc(-c3c(OC)cccc3OC)o2)C1=S [JL111, (Z)-3-Ethyl-5-(5-(2,6-dimethoxyphenyl)-furan-2-ylmethylene)oxazolidine-2,4-dithione]
- IC50 (NDV; avian paramyxovirus 1, Vero): 12 nM
- Abs Max [1]: 499 nm

SMILES: CCN1C(=O)/C(=C/c2ccc(-c3ccccc3)o2)NC1=S [JL104, (Z)-3-ethyl-5-((5-phenylfuran-2-yl)methylene)-2-thioxoimidazolidin-4-one]
- IC50 (HSV; [9]): > 500000 nM
- IC50 ± STD (nM) (N = x) HIV (HIV; [9]): Not active
- IC50 (NDV; avian paramyxovirus 1, Vero): > 500000 nM

SMILES: CCN1C(=S)O/C(=C\c2ccc(-c3cccc(OC)c3)o2)C1=S [JL117, (Z)-3-Ethyl-5-(5-(3-methoxyphenyl)-furan-2-ylmethylene)oxazolidine-2,4-dithione]
- IC50 (HSV; [9]): 20 nM
- IC50 (NDV; avian paramyxovirus 1, Vero): 5 nM
- Abs Max [1]: 504 nm

SMILES: CCN1C(=S)O/C(=C\c2ccc(-c3ccccc3OC)o2)C1=S [JL103, (Z)-3-ethyl-5-((5-(2-methoxyphenyl)furan-2-yl)methylene)oxazolidine-2,4-dithione]
- inhibition of CMV infection [6]: inhibit the infection
- bioavailability ([2]; ip, 10 mg/kg): ~50%
- bioavailability ([2]; po, 100 mg/kg): 3.1 to 105%
- inhibition of SFV infection [7]: inhibit the infection
- IC50 (HSV; [9]): 2.3 ± 2.7 nM
- KT × 10^−7 [3]: 7.8 ± 0.6 M^−1s^−1
- IC50 (HIV; [10]): 3 nM
- EC50 fold lower than compound 1's (NDV): about 10 fold
- EC90 (NDV; avian paramyxovirus 1, Vero, read-out: EC90 antiviral activity on NDV): ~15 nM
- IC50 (NDV; avian paramyxovirus 1, Vero): 7 nM
- absorption peak [1]: about 500 nm
- Abs Max [1]: 516 nm
- Relative integrated area from 400 to 700 nm [1]: 153
- light absorbed relative to LJ001 (integrated area 400-700 nm) ([1]; times more than LJ001): 1.53 times
- IC50 (lipid-enveloped viruses [8]): ~5 nM
- inhibition of parasite attachment and invasion (Toxoplasma gondii): inhibited parasite attachment and invasion
- clinical observations ([4]; 10 mg/kg ip single dose): appeared normal
- toxicity in vivo compared to the rhodanine derivatives [4]: less toxicity

SMILES: CCN1C(=S)O/C(=C\c2cc3ccccc3o2)C1=S [JL113, (Z)-5-(benzofuran-2-ylmethylene)-3-ethyloxazolidine-2,4-dithione]
- IC50 (NDV; avian paramyxovirus 1, Vero): 865 nM

SMILES: CCN1C(=S)O/C(=C\c2ccc(-c3ccccc3)o2)C1=S [JL102, (Z)-3-ethyl-5-((5-phenylfuran-2-yl)methylene)oxazolidine-2,4-dithione]
- inhibition of CMV infection [6]: inhibit the infection
- bioavailability ([2]; ip, 10 mg/kg): ~50%
- bioavailability ([2]; po, 100 mg/kg): 3.1 to 105%
- inhibition of SFV infection [7]: inhibit the infection
- EC50 fold lower than LJ001's (NDV): about 10 fold
- EC50 (Hela cells): ~400 nM
- IC50 (lipid-enveloped viruses [8]): ~40 nM
- clinical observations ([4]; 10 mg/kg ip single dose): appeared normal
- toxicity in vivo compared to the rhodanine derivatives [4]: less toxicity
